Test results: patent US8669247B2, “2,5-disubstituted arylsulfonamide CCR3 antagonists” (Axikin Pharmaceuticals, Inc., priority 2009, dated 2014)

Target: T1, CCR3 receptor (UniProt P51677)
T1 sequence (P51677 1-355): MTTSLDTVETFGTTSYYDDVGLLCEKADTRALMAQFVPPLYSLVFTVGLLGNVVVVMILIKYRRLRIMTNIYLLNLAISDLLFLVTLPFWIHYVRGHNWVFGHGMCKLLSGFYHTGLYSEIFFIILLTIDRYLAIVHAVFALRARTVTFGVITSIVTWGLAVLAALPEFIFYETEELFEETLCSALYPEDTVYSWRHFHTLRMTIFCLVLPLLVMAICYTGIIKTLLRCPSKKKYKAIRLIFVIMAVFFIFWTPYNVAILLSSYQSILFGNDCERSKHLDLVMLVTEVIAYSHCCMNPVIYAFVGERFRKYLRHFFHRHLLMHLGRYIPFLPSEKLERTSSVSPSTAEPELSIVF
Experiment: CCR3 Receptor Binding Assay ([125I]-labeled human eotaxin/CCL11 displacement on cells)
Experimental: Cells were washed once with PBS and resuspended in a binding buffer (25 mM HEPES pH 7.6, 5 mM MgCl2, 1 mM CaCl2, 0.5% BSA, 0.1% NaN3), […] of cell suspension (2×10^5 cells/well) and 0.1 nM [^125I]-labeled human eotaxin/CCL11 (2000 Ci/mmol specific activity) were mixed in a 96-well U-bottom polypropylene plate, and incubated for 60 min at room temperature for the binding reaction. The cell suspension was then transferred to a filtration plate (#MAFB, Millipore), and washed 3 times with the binding buffer containing 0.5 M NaCl, scintillant added, and the radioactivity was counted on a TopCount (Packard). For the determination of non-specific binding, the cell suspension and [^125I]-labeled human eotaxin/CCL11 were incubated in the presence of 500 nM of unlabeled human eotaxin/CCL11. See, lino et al., “Molecular cloning and functional characterization of cynomolgus monkey (Macaca fascicularis) CC chemokine receptor, CCR3,” Cytokine 2002, 19, 276-286.

[1] = Free (free form of the compound)
[2] = HCl: hydrochloric acid salt of the corresponding compound

| Ki [1] [nM] | Ki [2] [nM] | Structure (SMILES) | also measured |
| --- | --- | --- | --- |
| – | > 5 | CN1CCCN(S(=O)(=O)c2cc(C#N)ccc2Oc2cc(F)ccc2F)CC1 [Compound 57, 4-(2,5-Difluorophenoxy)-3-(4-methyl-1,4-diazepan-1-ylsulfonyl)benzonitrile] | – |
| ≤ 10 | – | CCN1CCN(S(=O)(=O)c2cc([N+](=O)[O-])ccc2Oc2cc(Cl)ccc2Cl)CC1 [Compound 100, 1-(2-(2,5-Dichlorophenoxy)-5-nitrophenylsulfonyl)-4-ethylpiperazine] | – |
| 10 to 25 | – | O=C1CN(S(=O)(=O)c2cc([N+](=O)[O-])ccc2Oc2cc(Cl)ccc2Cl)CCN1 [Compound 126, 4-(2-(2,5-Dichlorophenoxy)-5-nitrophenylsulfonyl)piperazin-2-one] | – |
| 25 to 100 | 25 to 100 | N#Cc1ccc(Oc2cc(F)ccc2F)c(S(=O)(=O)N2CCN(C3CCCC3)CC2)c1 [Compound 56, 3-(4-Cyclopentylpiperazin-1-ylsulfonyl)-4-(2,5-difluorophenoxy)benzonitrile] | – |
| 100 to 500 | 25 to 100 | CC(C)N1CCN(S(=O)(=O)c2cc(C#N)ccc2Oc2cc(F)ccc2F)CC1 [Compound 54, 4-(2,5-Difluorophenoxy)-3-(4-isopropylpiperazin-1-ylsulfonyl)benzonitrile] | – |
| 10 to 25 | – | CCN1CCN(S(=O)(=O)c2cc([N+](=O)[O-])ccc2Sc2cc(Cl)ccc2Cl)CC1 [Compound 99] | – |
| – | 25 to 100 | CCN(CC)CCNS(=O)(=O)c1cc(C#N)ccc1Sc1cc(C)ccc1C [Compound 73, 5-Cyano-N-(2-(diethylamino)ethyl)-2-(2,5-dimethylphenylthio)-benzenesulfonamide] | – |
| ≤ 10 | ≤ 10 | N#Cc1ccc(Sc2cc(Cl)ccc2Cl)c(S(=O)(=O)N2CCN(C3CCCC3)CC2)c1 [Compound 80, 3-(4-Cyclopentylpiperazin-1-ylsulfonyl)-4-(2,5-dichlorophenylthio)-benzonitrile] | Ki ((CO2H)2 salt): 25 to 100 nM; Ki (EtSO3H salt): ≤ 10 nM; Ki (H2SO4 salt): ≤ 10 nM; Ki (HNO3 salt): 25 to 100 nM; Ki (MeSO3H salt): ≤ 10 nM |
| > 5 | 25 to 100 | Cc1ccc(C)c(Sc2ccc(C#N)cc2S(=O)(=O)N2CCC(N(C)C)CC2)c1 [Compound 72, 3-(4-(Dimethylamino)piperidin-1-ylsulfonyl)-4-(2,5-dimethylphenylthio)-benzonitrile] | – |
| > 5 | – | CCN1CCN(S(=O)(=O)c2cc([N+](=O)[O-])ccc2Sc2cc(C)ccc2C)CC1 [Compound 101, 1-(2-(2,5-Dimethylphenylthio)-5-nitrophenylsulfonyl)-4-ethylpiperazine] | – |
| > 5 | > 5 | N#Cc1ccc(Oc2cc(F)ccc2F)c(S(=O)(=O)NCCN2CCCC2)c1 [Compound 63, 5-Cyano-2-(2,5-difluorophenoxy)-N-(2-(pyrrolidin-1-yl)ethyl)benzenesulfonamide] | – |
| > 5 | – | CCC(CC)N1CCN(S(=O)(=O)c2cc(C#N)ccc2Oc2cc(F)ccc2F)CC1 [Compound 55, 4-(2,5-Difluorophenoxy)-3-(4-(pentan-3-yl)piperazin-1-ylsulfonyl)benzonitrile] | – |
| 25 to 100 | 100 to 500 | Cc1ccc(C)c(Sc2ccc(C#N)cc2S(=O)(=O)N2CCN(C3CCCC3)CC2)c1 [Compound 69, 3-(4-Cyclopentylpiperazin-1-ylsulfonyl)-4-(2,5-dimethylphenylthio)-benzonitrile] | – |
| 10 to 25 | – | O=[N+]([O-])c1ccc(Oc2cc(Cl)ccc2Cl)c(S(=O)(=O)N2CCC(N3CCCC3)CC2)c1 [Compound 61] | – |
| 25 to 100 | ≤ 10 | CN(C)C1CCN(S(=O)(=O)c2cc(C#N)ccc2Sc2cc(Cl)ccc2Cl)CC1 [Compound 83, 4-(2,5-Dichlorophenylthio)-3-(4-(dimethylamino)piperidin-1-ylsulfonyl)benzonitrile] | – |
| > 5 | – | Cc1ccc(C)c(Sc2ccc([N+](=O)[O-])cc2S(=O)(=O)N2CCNC(=O)C2)c1 [Compound 125, 4-(2-(2,5-Dimethylphenylthio)-5-nitrophenylsulfonyl)piperazin-2-one] | – |

The next lines start with the compound.

| Structure (SMILES) | Ki [1] [nM] | Ki [2] [nM] | also measured |
| --- | --- | --- | --- |
| Cc1ccc(C)c(Sc2ccc(C#N)cc2S(=O)(=O)N2CCOCC2)c1 [Compound 71, 4-(2,5-Dimethylphenylthio)-3-(morpholinosulfonyl)benzonitrile] | > 5 | – | – |
| CCC(CC)N1CCN(S(=O)(=O)c2cc(C#N)ccc2Sc2cc(C)ccc2C)CC1 [Compound 68, 4-(2,5-Dimethylphenylthio)-3-(4-(pentan-3-yl)piperazin-1-ylsulfonyl)benzonitrile] | 25 to 100 | 25 to 100 | – |
| Cc1ccc(C)c(Oc2ccc([N+](=O)[O-])cc2S(=O)(=O)N2CCN(C3CCCCC3)CC2)c1 [Compound 121, 1-Cyclohexyl-4-(2-(2,5-dimethylphenoxy)-5-nitrophenylsulfonyl)piperazine] | ≤ 10 | – | – |
| CC(C)N1CCN(S(=O)(=O)c2cc(C#N)ccc2Sc2cc(Cl)ccc2Cl)CC1 [Compound 77, 4-(2,5-Dichlorophenylthio)-3-(4-isopropylpiperazin-1-ylsulfonyl)benzonitrile] | ≤ 10 | ≤ 10 | – |
| CN1CCCN(S(=O)(=O)c2cc(C#N)ccc2Oc2cc(Cl)ccc2Cl)CC1 [Compound 92, 4-(2,5-Dichlorophenoxy)-3-(4-methyl-1,4-diazepan-1-ylsulfonyl)benzonitrile] | 25 to 100 | – | – |
| CN1CCCN(S(=O)(=O)c2cc(C#N)ccc2Sc2cc(Cl)ccc2Cl)CC1 [Compound 81, 4-(2,5-Dichlorophenylthio)-3-(4-methyl-1,4-diazepan-1-ylsulfonyl)-benzonitrile] | ≤ 10 | 10 to 25 | – |
| Cc1ccc(C)c(Oc2ccc([N+](=O)[O-])cc2S(=O)(=O)N2CC(C)NC(C)C2)c1 (stereo not drawn) [Compound 106, 1-(2-(2,5-Dimethylphenoxy)-5-nitrophenylsulfonyl)-3,5-dimethylpiperazine] | > 5 | – | – |
| Cc1ccc(C)c(Sc2ccc(C#N)cc2S(=O)(=O)N2CCS(=O)(=O)CC2)c1 [Compound 140] | > 5 | – | – |
| N#Cc1ccc(Oc2cc(Cl)ccc2Cl)c(S(=O)(=O)NCCN2CCOCC2)c1 [Compound 95, 5-Cyano-2-(2,5-dichlorophenoxy)-N-(2-morpholinoethyl)benzenesulfonamide] | 100 to 500 | – | – |
| CCN1CCN(S(=O)(=O)c2cc([N+](=O)[O-])ccc2Oc2cc(C)ccc2C)CC1 [Compound 102, 1-(2-(2,5-Dimethylphenoxy)-5-nitrophenylsulfonyl)-4-ethylpiperazine] | > 5 | – | – |
| CN1CCN(S(=O)(=O)c2cc(C#N)ccc2Oc2cc(Cl)ccc2Cl)CC1 [Compound 96, 4-(2,5-Dichlorophenoxy)-3-(4-methylpiperazin-1-ylsulfonyl)benzonitrile] | 25 to 100 | – | – |
| N#Cc1ccc(Oc2cc(Cl)ccc2Cl)c(S(=O)(=O)N2CCN(C3CCCCCC3)CC2)c1 [Compound 91, 3-(4-Cycloheptylpiperazin-1-ylsulfonyl)-4-(2,5-dichlorophenoxy)benzonitrile] | 10 to 25 | – | – |
| Cc1ccc(C)c(Oc2ccc([N+](=O)[O-])cc2S(=O)(=O)N2CCN(C(C)C)CC2)c1 [Compound 109, 1-(2-(2,5-Dimethylphenoxy)-5-nitrophenylsulfonyl)-4-isopropylpiperazine] | > 5 | – | – |
| Cc1ccc(C)c(Sc2ccc(C#N)cc2S(=O)(=O)N2CCSCC2)c1 [Compound 85, 4-(2,5-Dimethylphenylthio)-3-(thiomorpholinosulfonyl)benzonitrile] | > 5 | – | – |
| Cc1ccc(C)c(Sc2ccc([N+](=O)[O-])cc2S(=O)(=O)N2CCN(C3CCCCC3)CC2)c1 [Compound 120, 1-Cyclohexyl-4-(2-(2,5-dimethylphenylthio)-5-nitrophenylsulfonyl)piperazine] | > 5 | – | – |
| Cc1ccc(C)c(Oc2ccc(C#N)cc2S(=O)(=O)N2CCNCC2)c1 [Compound 51, 4-(2,5-Dimethylphenoxy)-3-(piperazin-1-ylsulfonyl)benzonitrile] | 100 to 500 | 25 to 100 | – |
| CC1CCN(S(=O)(=O)c2cc(C#N)ccc2Oc2cc(Cl)ccc2Cl)CC1 [Compound 87, 4-(2,5-Dichlorophenoxy)-3-(4-methylpiperidin-1-ylsulfonyl)benzonitrile] | > 5 | – | – |
| CC(C)N1CCN(S(=O)(=O)c2cc([N+](=O)[O-])ccc2Sc2cc(Cl)ccc2Cl)CC1 [Compound 108, 1-(2-(2,5-Dichlorophenylthio)-5-nitrophenylsulfonyl)-4-isopropylpiperazine] | ≤ 10 | – | – |
| N#Cc1ccc(Oc2cc(F)ccc2F)c(S(=O)(=O)NCCN2CCCCC2)c1 [Compound 64, 5-Cyano-2-(2,5-difluorophenoxy)-N-(2-(piperidin-1-yl)ethyl)benzenesulfonamide] | > 5 | > 5 | – |
| CC(C)N1CCN(S(=O)(=O)c2cc(C#N)ccc2Oc2cc(Cl)ccc2Cl)CC1 [Compound 88, 4-(2,5-Dichlorophenoxy)-3-(4-isopropylpiperazin-1-ylsulfonyl)benzonitrile] | ≤ 10 | – | – |
| O=[N+]([O-])c1ccc(Sc2cc(Cl)ccc2Cl)c(S(=O)(=O)N2CCCNCC2)c1 [Compound 127, 1-(2-(2,5-Dichlorophenylthio)-5-nitrophenylsulfonyl)-1,4-diazepane] | > 5 | – | – |
